What was measured:
Assay in all cases: drug sensitivity score (DSS) from 5-point dose-response viability curve (DSS (area-under-curve based score)); higher = more sensitive (stronger growth inhibition or killing); extreme values may be limits of the assay
Settings in all cases: exposure time: 72 h; concentration range: 5 concentrations over 10,000-fold range
Ovsaho = tested on: Ovsaho
In short: (§1)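 Drug sensitivity scores were calculated in Breeze software for each cell line and drug pair; higher scores indicate more sensitivity. A score of zero indicates no response. The underlying assay used 384-well plates: drugs were placed by an Echo 550 acoustic dispenser at five concentrations spanning a 10,000-fold range, 1,500 ovarian cancer or normal ovarian cells were added per well, and cells were kept 3 days at 37°C, 5% CO2. Viability was then measured with CellTiter-Glo luminescence on a PHERAstar FS.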

COV362 = tested on: COV362
In short: as §1

COV318 = tested on: COV318
In short: as §1

HOSE2C = tested on: HOSE2C
In short: as §1

CAOV3 = tested on: CAOV3
In short: as §1

Kuramochi = tested on: Kuramochi
In short: as §1

OVCAR5 = tested on: OVCAR5
In short: as §1

OVCAR8 = tested on: OVCAR8
In short: as §1

OVCAR4 = tested on: OVCAR4
In short: as §1

OV90 = tested on: OV90
In short: as §1

HOSE1C = tested on: HOSE1C
In short: as §1

JHOS2 = tested on: JHOS2
In short: as §1

Row | Compound | drug sensitivity score (Ovsaho) | drug sensitivity score (COV362) | drug sensitivity score (COV318) | drug sensitivity score (HOSE2C) | drug sensitivity score (CAOV3) | drug sensitivity score (Kuramochi) | drug sensitivity score (OVCAR5) | drug sensitivity score (OVCAR8) | drug sensitivity score (OVCAR4) | drug sensitivity score (OV90) | drug sensitivity score (HOSE1C) | drug sensitivity score (JHOS2)
1 | COc1cccc(OCCCN)c1-c1cc(Nc2cnc(C#N)cn2)n[nH]1 [Prexasertib] | 16.1 | 16.8 | 22.9 | 36.7 | 24.8 | 19.8 | 25 | 30.1 | 21.8 | 16.7 | 40.9 | 22.4
2 | Cn1cc(CNCC2CCN(c3ncc(C(=O)NO)cn3)CC2)c2ccccc21 [Quisinostat] | 9 | 4.5 | 4.7 | 19 | 11.5 | 9.2 | 19.2 | 18.6 | 8 | 14.6 | 22.9 | 8.1
3 | CC(C)(C)c1cc(NC(=O)Nc2ccc(-c3cn4c(n3)sc3cc(OCCN5CCOCC5)ccc34)cc2)no1 [Quizartinib] | 0.2 | 0 | 0 | 0.8 | 0 | 0 | 0.8 | 2.2 | 1.5 | 0.2 | 0 | 0
4 | Nc1cc(F)ccc1NC(=O)/C=C/c1cnn(C/C=C/c2ccccc2)c1 [RGFP966] | 0 | 0 | 0.6 | 2.4 | 0.1 | 0.4 | 3.3 | 2.3 | 2.4 | 1.9 | 1.1 | 0.1
5 | COC(=O)c1ccc([C@H]2c3[nH]c4ccccc4c3C[C@H](C(=O)OC)N2C(=O)CCl)cc1 [RSL3] | 0 | 0 | 0 | 25.4 | 0 | 0 | 3.1 | 0 | 0 | 0 | 14.5 | 0
6 | Cc1cnc(NC(=O)Nc2cc(Br)c(C)cc2OC[C@@H]2CNCCO2)cn1 [Rabusertib] | 0 | 0.2 | 0.2 | 2 | 0.1 | 0.1 | 0.1 | 0 | 1 | 1.6 | 1.8 | 0
7 | Cc1cn(-c2cc(NC(=O)c3ccc(C)c(Nc4nccc(-c5cnccn5)n4)c3)cc(C(F)(F)F)c2)cn1 [Radotinib] | 0 | 0 | 0 | 0 | 0 | 0.9 | 0 | 0 | 0 | 1.3 | 0 | 0
8 | CC(C)(C)Cn1c(N)nc2ccc(-c3[nH]c(C(C)(C)C)nc3-c3ccc(F)cc3)nc21 [Ralimetinib] | 1.8 | 1.4 | 2.6 | 0.5 | 2.9 | 6.6 | 4.3 | 3.1 | 1.1 | 4.1 | 1.1 | 1.8
9 | O=C(c1ccc(OCCN2CCCCC2)cc1)c1c(-c2ccc(O)cc2)sc2cc(O)ccc12 [Raloxifene] | 3.3 | 1.2 | 1.8 | 0 | 0.5 | 2.6 | 2 | 1.5 | 0.3 | 1.9 | 0 | 1
10 | Cc1nc(=O)c2cc(CN(C)c3ccc(C(=O)N[C@@H](CCC(=O)O)C(=O)O)s3)ccc2[nH]1 [Raltitrexed] | 5.7 | 6 | 3 | 20.3 | 10.7 | 9.1 | 6.3 | 18.4 | 6.4 | 6.1 | 21.8 | 4.2
11 | Cn1nccc1Nc1nccc(-c2ccn([C@H](CO)c3ccc(Cl)c(F)c3)c(=O)c2)n1 [Ravoxertinib] | 4.7 | 0.2 | 0 | 0 | 6 | 4.8 | 8.8 | 6.9 | 0.8 | 13.6 | 0 | 3.7
12 | CNC(=O)c1cc(Oc2ccc(NC(=O)Nc3ccc(Cl)c(C(F)(F)F)c3)c(F)c2)ccn1 [Regorafenib] | 2 | 0.6 | 0.6 | 2.7 | 2 | 1.2 | 4.4 | 4.1 | 1.6 | 7.9 | 1.6 | 1.3
13 | CCOC(=O)C1=CCCC[C@H]1S(=O)(=O)Nc1ccc(F)cc1Cl [Resatorvid] | 0 | 0 | 0 | 0 | 0 | 0 | 0 | 0 | 0 | 0 | 0 | 0
14 | CCOCc1nc2c(N)nc3ccccc3c2n1CC(C)(C)O [Resiquimod] | 0.3 | 0 | 0 | 0 | 0 | 1.2 | 0.3 | 0 | 0.3 | 0 | 0 | 0.6
15 | CN(C)Cc1ccc(S(=O)(=O)n2ccc(/C=C/C(=O)NO)c2)cc1 [Resminostat] | 3.6 | 2.9 | 4.8 | 12 | 8.2 | 5.8 | 12.3 | 11.8 | 3.2 | 9.7 | 19.3 | 5.3

Reference: the supplement of paper PMC11616607
